Laboratory results from ChEMBL document CHEMBL1147307, “Cytotoxic macrolides from a cultured marine dinoflagellate of the genus Amphidinium” (J Nat Prod, 1989).
Values after ≈ are worked out from the molar mass of the structure shown.

Tested on: L1210
Experiment: Cytotoxicity against mouse L1210 cells
Format: functional, cell-based

## C=C1/C=C(\C)C(C)(O)CC(O)CC(=O)C(O)C(O)C(C)CC(C)OC(=O)/C(C)=C/CC/C=C/C(OC)C(O)CC(C)C1 (stereo unspecified)
  IC50: 0.081 µg/mL (≈ 0.136 µM)
